In general, Ki refers to a measure of affinity in units of concentration, obtained from inhibition or displacement. High values mean a looser hold on the target, low ones a stronger hold on the target.

The target in this assay is T1, renal dehydropeptidase I (renal dipeptidase, E.C. 3.4.13.11) (Sus scrofa, UniProt P22412).
T1 construct: solubilized preparation of […] isolated from hog kidneys; from tissue; host or cells: hog kidney
T1 sequence (P22412 17-409): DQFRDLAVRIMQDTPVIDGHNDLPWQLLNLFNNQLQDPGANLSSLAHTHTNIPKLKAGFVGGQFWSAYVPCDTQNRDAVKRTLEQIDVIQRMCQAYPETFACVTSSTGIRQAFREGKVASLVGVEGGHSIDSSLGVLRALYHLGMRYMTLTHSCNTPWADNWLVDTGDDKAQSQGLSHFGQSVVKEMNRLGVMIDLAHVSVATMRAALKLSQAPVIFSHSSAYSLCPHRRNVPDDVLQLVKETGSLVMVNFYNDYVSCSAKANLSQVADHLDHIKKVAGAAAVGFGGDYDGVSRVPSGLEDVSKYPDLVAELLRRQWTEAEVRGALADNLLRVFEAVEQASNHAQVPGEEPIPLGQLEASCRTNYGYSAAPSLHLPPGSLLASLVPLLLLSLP
Put plainly: In vitro screen: inhibition of hydrolysis of glycyldehydrophenylalanine (GDP) by solubilized renal dipeptidase. It is filed as biochemical. The conditions noted are these: Table I, structure II; hog kidney enzyme, GDP 0.05 mM, pH 7.1, 37° C., 275 nm. On the procedure: Renal dehydropeptidase activity was first described by M. Bergmann and H. Schleich, Z. Physiol. Chem., 205, 65 (1932); see also B. J. Campbell et al., Biochem. Biophys. Acta, 118, 371 (1966) and references therein.
This measured the ability of compounds to inhibit hydrolysis of glycyldehydrophenylalanine (GDP) by a solubilized preparation of […] isolated from hog kidneys. The procedure is as follows: to a 1 ml system containing 50 mM "MOPS" (3-(N-morpholino)-propanesulfonic acid) buffer, pH 7.1 is added 5 mg of lyophilized enzyme, and the test compound at a final concentration of 0.1 mM. After a five minute incubation of 37° C., GDP is added to a final concentration of 0.05 mM. Incubation is continued for 10 minutes, at 37° C. and hydrolysis of GDP is measured by the change in optical density with time at 275 nm. Inhibition of the enzyme is gauged by comparison to a standard run containing no inhibitor and is expressed as the inhibitor binding constant K. This is the concentration of the inhibitor which achieves 50% inhibition of enzyme.

Compound `CC(C)/C=C(/CP(=O)(O)C(N)CC1CCCCC1)C(=O)O` (centres unmarked) displayed an inhibition constant Ki of 0.021 µM. The result for `CC(C)/C=C(\CP(=O)(O)C(N)CC1CCCCC1)C(=O)O` (centres unmarked) reads 0.0021 µM.

(Values after patent US5145990A, “Phosphorous containing dhp enzyme inhibitors” (Merck & Co., Inc., priority 1991, dated 1992).)
